Results as given in ChEMBL document CHEMBL1201862, “PubChem BioAssay data set” (2004).
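Results reflect a 48-hour exposure of cells in 96-well plates to compound at five concentrations. GI50 marks 50% less growth.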 Active and inactive are the calls of the source. Rule as the data show it: active = GI50 up to about 1.1 µM and inactive = higher.

Assays:
Experiment in all cases: DTP human tumour cell line panel, 48 h
SK-MEL-5 = tested on: SK-MEL-5
U-251 = tested on: U-251
A549 = tested on: A549
Malme-3M = tested on: Malme-3M
RXF 393 = tested on: RXF 393
NCI-H23 = tested on: NCI-H23
HOP-62 = tested on: HOP-62
NCI-H460 = tested on: NCI-H460
EKVX = tested on: EKVX
SF-539 = tested on: SF-539
CCRF-CEM = tested on: CCRF-CEM
SK-MEL-28 = tested on: SK-MEL-28
SF-268 = tested on: SF-268
LOX IMVI = tested on: LOX IMVI
COLO 205 = tested on: COLO 205
M14 = tested on: M14
SNB-75 = tested on: SNB-75

Measured: GI50

O=C(c1cc2ccccc2[nH]1)C(O)(c1cc2ccccc2[nH]1)c1cc2ccccc2[nH]1
inactive: SK-MEL-5 > 246 µM | U-251 > 246 µM | A549 > 246 µM | Malme-3M > 246 µM | RXF 393 > 246 µM | NCI-H23 112 µM | HOP-62 > 246 µM | NCI-H460 > 246 µM | EKVX > 246 µM | SF-539 129 µM | CCRF-CEM > 246 µM | SK-MEL-28 > 246 µM | SF-268 > 246 µM | LOX IMVI > 246 µM | COLO 205 > 246 µM

CN1CCc2cc(O)c3cc2C1Cc1ccc(cc1)Oc1cc(ccc1O)CC1c2c(cc4c(c2O3)OCO4)CCN1C (stereo not drawn)
inactive: M14 16.8 µM | SK-MEL-5 18.9 µM | U-251 30.1 µM | A549 45.7 µM | SNB-75 13.4 µM | RXF 393 11.2 µM | NCI-H23 > 100 µM | NCI-H460 46.2 µM | EKVX 18.1 µM | SF-539 17.3 µM | CCRF-CEM 27.7 µM | SK-MEL-28 21.3 µM | SF-268 33.1 µM | COLO 205 13.5 µM

COc1ccc(-c2ccccc2)c(N/N=C2\CCCNC2=O)c1
inactive: M14 > 100 µM | SK-MEL-5 28.2 µM | U-251 > 100 µM | A549 12.9 µM | SNB-75 32.8 µM | Malme-3M > 100 µM | RXF 393 11 µM | NCI-H23 > 100 µM | HOP-62 19.6 µM | NCI-H460 > 100 µM | EKVX > 100 µM | SF-539 50.7 µM | SK-MEL-28 > 100 µM | SF-268 43.5 µM | LOX IMVI > 100 µM | COLO 205 > 100 µM

O=C(CCc1nnc2s/c(=C\c3ccccc3Cl)c(=O)n12)Nc1cc(Cl)ccc1Cl
inactive: M14 > 100 µM | SK-MEL-5 > 100 µM | U-251 > 100 µM | A549 > 100 µM | Malme-3M > 100 µM | RXF 393 > 100 µM | NCI-H23 > 100 µM | HOP-62 > 100 µM | NCI-H460 > 100 µM | EKVX > 100 µM | SF-539 > 100 µM | CCRF-CEM > 100 µM | SK-MEL-28 > 100 µM | SF-268 > 100 µM | LOX IMVI > 100 µM

O=C(CC1(O)C(=O)Nc2ccc(Br)cc21)c1cccc([N+](=O)[O-])c1 (stereo not drawn)
inactive: M14 48.8 µM | SK-MEL-5 > 10 µM | U-251 > 100 µM | A549 > 100 µM | SNB-75 26.7 µM | Malme-3M > 100 µM | RXF 393 23.8 µM | NCI-H23 43.9 µM | HOP-62 49.5 µM | NCI-H460 > 100 µM | EKVX 40.7 µM | CCRF-CEM 24.1 µM | SK-MEL-28 35.8 µM | SF-268 39 µM | LOX IMVI 32.4 µM | COLO 205 > 100 µM

O=c1cc(-c2ccc(Cl)cc2)oc2cc(OCCCOc3ccc4c(=O)cc(-c5ccc(Cl)cc5)oc4c3)ccc12
inactive: M14 > 100 µM | SK-MEL-5 > 100 µM | U-251 > 100 µM | A549 > 100 µM | SNB-75 45.2 µM | Malme-3M > 100 µM | RXF 393 > 100 µM | NCI-H23 > 100 µM | HOP-62 > 100 µM | NCI-H460 > 100 µM | EKVX > 100 µM | SF-539 > 100 µM | CCRF-CEM > 100 µM | SK-MEL-28 > 100 µM | SF-268 > 100 µM | LOX IMVI > 100 µM | COLO 205 > 100 µM

COc1ccc(-c2cc(O)c3cc(Cl)ccc3n2)cc1
inactive: M14 > 100 µM | SK-MEL-5 > 100 µM | SNB-75 > 100 µM | Malme-3M > 100 µM | RXF 393 > 100 µM | NCI-H23 > 100 µM | HOP-62 > 100 µM | NCI-H460 > 100 µM | EKVX > 100 µM | SF-539 > 100 µM | CCRF-CEM > 100 µM | SK-MEL-28 > 100 µM | SF-268 > 100 µM | LOX IMVI > 100 µM | COLO 205 > 100 µM
